Data set [1] deals with HEK293. The data set is described as follows: Modulation of basal activity of HCMV US28 delta300 mutant expressed in tetracyclin-induced HEK293 cells assessed as change in inositol phosphate accumulation at 10 uM using [3H]-myo-inositol by scintillation proximity assay relative to control. Type of data set: cell-based. To be noted: Human betaherpesvirus 5.
In data set [2] the test system is HEK293. The data set can be described thus: Displacement of [125I]-CCL2 from HCMV US28 expressed in HEK293 cells at 10 uM after 3 hrs by gamma counting method relative to control. The data set is classed as cell-based. To be noted: Human betaherpesvirus 5. (In general: Displacement assays read how much labelled ligand stays bound in the presence of the test substance.)

Data set [3] is described as follows: Modulation of basal activity of HCMV US28 delta300 mutant expressed in tetracyclin-induced HEK293 cells assessed as change in inositol phosphate accumulation using [3H]-myo-inositol by scintillation proximity assay. The data set is classed as cell-based. Particulars: Human betaherpesvirus 5, HEK293. (In general: SPA uses beads or plates that emit light when radiolabelled molecules are held near them.)

Data set [4] in a line: Displacement of [125I]-CCL2 from HCMV US28 expressed in HEK293 cells after 3 hrs by gamma counting method. The data set is classed as cell-based, Human betaherpesvirus 5.
The nature of data set [5]: Agonist activity at HCMV US28 expressed in African green monkey COS7 cells assessed as increase in inositol phosphate accumulation using [3H]-myo-inositol after 90 mins by scintillation proximity assay. The data set is classed as cell-based. Particulars: Human betaherpesvirus 5, COS-7.
Data set [6] in a line: Modulation of basal activity of HCMV US28 expressed in tetracyclin-induced HEK293 cells assessed as change in inositol phosphate accumulation using [3H]-myo-inositol by scintillation proximity assay. The data set is classed as cell-based. To be noted: Human betaherpesvirus 5, HEK293.
Data set [7] deals with HEK293. The data set can be described thus: Displacement of [125I]-CX3CL1 from HCMV US28 expressed in HEK293 cells at 10 uM after 3 hrs by gamma counting method relative to control. The data set is classed as cell-based. To be noted: Human betaherpesvirus 5.
Data set [8] deals with HEK293. The data set is described as follows: Displacement of [125I]-CCL4 from HCMV US28 expressed in HEK293 cells at 10 uM after 3 hrs by gamma counting method relative to control. The data set is classed as cell-based. To be noted: Human betaherpesvirus 5.
Data set [9] is described as follows: Inverse agonist activity at HCMV US28 expressed in African green monkey COS7 cells assessed as inhibition of inositol phosphate accumulation using [3H]-myo-inositol by liquid scintillation counting method. Type of data set: cell-based. Particulars: Human betaherpesvirus 5, COS-7.
The test system of data set [10] is HEK293. The data set is described as follows: Modulation of basal activity of HCMV US28 expressed in tetracyclin-induced HEK293 cells assessed as change in inositol phosphate accumulation at 10 uM using [3H]-myo-inositol by scintillation proximity assay relative to control. The data set is classed as cell-based. Particulars: Human betaherpesvirus 5.
For data set [11], the system named is HEK293. The data set is described as follows: Effect on inositol phosphate accumulation in HEK293 cells at 10 uM using [3H]-myo-inositol by scintillation proximity assay. Type of data set: cell-based. Particulars: human, hek293, 10 µM.
A short description of data set [12]: Inverse agonist activity at HCMV US28 expressed in African green monkey COS7 cells assessed as inhibition of inositol phosphate accumulation using [3H]-myo-inositol after 90 mins by scintillation proximity assay. The data set is classed as cell-based. To be noted: Human betaherpesvirus 5, COS-7.

Calls of active or inactive are those of the source. No cut-off for these calls is given here. Some results are limits rather than exact numbers.

This note sets out measurements from ChEMBL document CHEMBL4152297, “Ligand-selective small molecule modulators of the constitutively active vGPCR US28” (Eur J Med Chem, 2018).

For `Cn1c(CN2CCN(CC(=O)Nc3ccc(OC(F)(F)F)cc3)CC2)nc2ccccc21`, the Efficacy in the data set with HEK293 [1] was determined as 59%; with HEK293 [2] it was 7%. In addition, the EC50 in [3] (read-out: EC50) was 3360 nM; in data set [3] (read-out: pEC50 (converted)) it was 3160 nM.
By IC50 is commonly meant the concentration at which inhibition is half-maximal. As for `Cc1nc2ccccc2n1CC1CCN(CC(=O)NCCc2ccccc2)CC1`, the Efficacy with HEK293 [1] was found to be 107%. The same compound returned an IC50 in data set [4] of 5290 nM. The EC50 was 1800 nM in data set [3] (read-out: EC50) and 2000 nM in [3] (read-out: pEC50 (converted)).
For `CC(=O)c1ccc(N2CCN(Cc3nc4scc(-c5ccccc5)c4c(=O)[nH]3)CC2)cc1`, the EC50 in data set [5] is 950 nM.
One may read the inhibition as the percentage by which the read-out fell short of the control. `N#CC(CCCN1CCC(O)(c2ccc(Cl)cc2)CC1)(c1ccccc1)c1ccccc1` [BERLEX COMPOUND]: the figures for the Efficacy in the data set with HEK293 [1], in the data set on HEK293 [2] and with HEK293 [10] were 99%, 60% and -31%, respectively. Moreover, the EC50 in data set [3] (read-out: EC50) is 860 nM; in data set [3] (read-out: pEC50 (converted)) it was 794 nM; in data set [6] (read-out: EC50), 10000 nM; in [6] (read-out: pEC50 (converted)), 10000 nM; in data set [9], 3500 nM. Further, in the data set with HEK293 [7], the inhibition result was “inactive”. In the data set with HEK293 [8], this compound returned an inhibition of 65%.
What is called pIC50 is the negative decadic logarithm of the IC50, by convention in mol/L. As for `COC(=O)c1ccc(NC(=O)CN2CCC(Cn3c(C)nc4ccccc43)CC2)cc1`, the Efficacy in the data set on HEK293 [1] was 70%; with HEK293 [2] it was 32%. This compound gave a 50% inhibitory concentration (IC50) in data set [4] of 9560 nM. The compound also returned a negative logarithm of the IC50 (pIC50) in data set [4] of 5.02. Moreover, the EC50 in data set [3] (read-out: EC50) was 884 nM; in data set [3] (read-out: pEC50 (converted)), 794 nM.
Consider `O=C(CN1CCN(Cc2nc(-c3ccc(F)cc3)no2)CC1)Nc1ccc(F)cc1`, for which the Activity result in the data set with HEK293 [11] is “Toxic”. Besides, the results for the Efficacy in the data set on HEK293 [1] and in the data set on HEK293 [10] were -23% and -54%, respectively. Also, the EC50 is 1140 nM in [3] (read-out: EC50), 1260 nM in data set [3] (read-out: pEC50 (converted)), 3040 nM in data set [6] (read-out: EC50) and 3020 to 3160 nM in [6] (read-out: pEC50 (converted)).
As for `Cc1nc2ccccc2n1CC1CCN(Cc2ccc(F)c(F)c2)CC1`, the Efficacy in the data set with HEK293 [1] came to 93%; in the data set with HEK293 [2], 46%. Further, in data set [4], the IC50 stood at 5260 nM. In data set [4], this compound returned a negative-log IC50 (pIC50) of 5.28. The EC50 in data set [3] (read-out: EC50) is 1480 nM; in data set [3] (read-out: pEC50 (converted)), 1580 nM.
`Cc1sc2nc(CN3CCN(CC(=O)NC4CCC(C)CC4)CC3)[nH]c(=O)c2c1C` (stereo unspecified): in the data set on HEK293 [1], the Efficacy turned out to be 118%. In addition, the inhibition entry in the data set with HEK293 [2] was “Active”. Moreover, the EC50 in data set [3] (read-out: EC50) was 1560 nM; in [3] (read-out: pEC50 (converted)), 1580 nM. This compound also returned an inhibition in the data set with HEK293 [7] of 32%.
Take `O=C(CN1CCC(Cn2cnc3ccccc32)CC1)N1CCN(c2ccccc2)CC1`: the Efficacy in the data set with HEK293 [1] is 77%; in the data set on HEK293 [10] it was -27%. Moreover, the EC50 in [3] (read-out: EC50) was 4800 nM; in data set [3] (read-out: pEC50 (converted)), 5010 nM; in data set [6] (read-out: EC50), 3890 nM; in [6] (read-out: pEC50 (converted)), 3980 nM.
Consider `Cn1c(CN2CCN(CC(=O)Nc3ccc(F)cc3F)CC2)nc2ccccc21`, for which the Efficacy is 75% in the data set on HEK293 [1], 6% in the data set with HEK293 [2] and -15% in the data set with HEK293 [10]. The EC50 is 9880 nM in data set [3] (read-out: EC50), 10000 nM in [3] (read-out: pEC50 (converted)), 133 nM in [6] (read-out: EC50) and 126 nM in data set [6] (read-out: pEC50 (converted)).
Regarding `Cc1cc2ncn(CC3CCN(CC(=O)NCc4ccc(F)cc4)CC3)c2cc1C`, the Efficacy in the data set with HEK293 [2] was 25%; in the data set with HEK293 [10], -16%. Also, the half-inhibitory concentration (IC50) in data set [4] is greater than 10000 nM. Besides, the figures for the EC50 in data set [6] (read-out: EC50) and in data set [6] (read-out: pEC50 (converted)) were 33 nM and 31.6 nM, respectively.
Turning to `Cc1nc2ccccc2n1CC1CCN(CC(=O)Nc2ccc(F)cc2F)CC1`, the EC50 in [12] is 1760 nM; in data set [6] (read-out: EC50) it was 985 nM; in data set [6] (read-out: pEC50 (converted)), 1000 nM. The Efficacy was 10% in the data set with HEK293 [2] and -39% with HEK293 [10]. For the same compound, in the data set with HEK293 [7], the inhibition entry is “inactive”. The inhibition in the data set with HEK293 [8] stood at 10%.
With `Cc1nc2ccccc2n1CC1CCN(CC(=O)Nc2cc(C(F)(F)F)ccc2Cl)CC1`, the Efficacy is 24% in the data set on HEK293 [2] and -43% in the data set on HEK293 [10]. Moreover, the IC50 in data set [4] came out at 2990 nM. Also, the pIC50 in data set [4] was 5.52. Moreover, the EC50 in data set [6] (read-out: EC50) was 344 nM; in data set [6] (read-out: pEC50 (converted)), 316 nM.
On to `O=C(CN1CCC(Cn2cnc3ccccc32)CC1)Nc1nc2ccc(F)cc2s1`, for which the Efficacy in the data set on HEK293 [2] was determined as 20%. In data set [4], this compound yielded an IC50 greater than 10000 nM.
Consider `Cc1cc2ncn(CC3CCN(CC(=O)Nc4ccccc4C(F)(F)F)CC3)c2cc1C`, for which the Efficacy was 54% with HEK293 [1] and -12% in the data set on HEK293 [10]. Also, the EC50 is 19800 nM in data set [3] (read-out: EC50), 20000 nM in data set [3] (read-out: pEC50 (converted)), 80700 nM in [6] (read-out: EC50) and 79400 nM in data set [6] (read-out: pEC50 (converted)).
As to `Cc1nc2ccccc2n1CC1CCN(CC(=O)Nc2ccc(OC(F)(F)F)cc2)CC1`, the Efficacy in the data set on HEK293 [1] was determined as 86%; in the data set with HEK293 [2], 78%; in the data set with HEK293 [10] it was 26%. In addition, in data set [4], the IC50 was determined as 2110 nM. Further, the pIC50 in data set [4] is 5.68. Also, the EC50 was 103 nM in [3] (read-out: EC50), 100 nM in data set [3] (read-out: pEC50 (converted)), 269 nM in [6] (read-out: EC50) and 251 nM in data set [6] (read-out: pEC50 (converted)). Further, the inhibition in the data set on HEK293 [7] amounted to 32%.
`Cc1ccc(NC(=O)CN2CCC(Cn3cnc4ccccc43)CC2)cc1Cl`: the Efficacy is 50% with HEK293 [1], 71% in the data set on HEK293 [2] and 21% in the data set on HEK293 [10]. In data set [4], this compound returned an IC50 of 1520 nM. In [4], this compound gave a pIC50 of 5.82. Also, the EC50 in data set [3] (read-out: EC50) was 182 nM; in data set [3] (read-out: pEC50 (converted)), 200 nM; in [6] (read-out: EC50), 254 nM; in data set [6] (read-out: pEC50 (converted)), 251 nM.
